Tested on: 138582-337-R-J1-PDC complex spheroid viability
Assay: Anticancer human tumor 138582-337-R-J1-PDC patient-derived Merkel cell tumor cell line growth inhibition
Details: for IC50: curve of first compound; for viability, T/C: stronger effect = lower value
How it was run: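 Drug combinations with the LSD1 inhibitor iadademstat tested on tumor cells co-cultured as spheroids with endothelial cells and mesenchymal stem cells. Concentrations descended in half-log increments from clinical Cmax or 10 microM.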

[1] = second compound 0.1 µM, first compound 0.0316 µM
[2] = second compound 0.1 µM, first compound 0.1 µM
[3] = second compound 0.1 µM, first compound 0.316 µM
[4] = second compound 0.1 µM, first compound 1 µM
[5] = second compound 0.1 µM, first compound 3.16 µM
[6] = second compound 0.1 µM, first compound 10 µM
[7] = second compound 0.316 µM, first compound 0.0316 µM
[8] = second compound 0.316 µM, first compound 0.1 µM
[9] = second compound 0.316 µM, first compound 0.316 µM
[10] = second compound 0.316 µM, first compound 1 µM
[11] = second compound 0.316 µM, first compound 3.16 µM
[12] = second compound 0.316 µM, first compound 10 µM
[13] = second compound 1 µM, first compound 0.0316 µM
[14] = second compound 1 µM, first compound 0.1 µM
[15] = second compound 1 µM, first compound 0.316 µM
[16] = second compound 1 µM, first compound 1 µM
[17] = second compound 1 µM, first compound 3.16 µM
[18] = second compound 1 µM, first compound 10 µM
[19] = second compound 3.16 µM, first compound 0.0316 µM
[20] = second compound 3.16 µM, first compound 0.1 µM
[21] = second compound 3.16 µM, first compound 0.316 µM
[22] = second compound 3.16 µM, first compound 1 µM
[23] = second compound 3.16 µM, first compound 3.16 µM
[24] = second compound 3.16 µM, first compound 10 µM
[25] = second compound 10 µM, first compound 0.0316 µM
[26] = second compound 10 µM, first compound 0.1 µM
[27] = second compound 10 µM, first compound 0.316 µM
[28] = second compound 10 µM, first compound 1 µM
[29] = second compound 10 µM, first compound 3.16 µM
[30] = second compound 10 µM, first compound 10 µM
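Further: spheroids exposed to agents for 7 days.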
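Wherever viability, T/C is given: 100% = DMSO vehicle control viability.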

Row | SMILES | IC50 (second compound 0.1 µM) [nM] | IC50 (second compound 0.316 µM) [nM] | IC50 (second compound 1 µM) [nM] | IC50 (second compound 3.16 µM) [nM] | IC50 (second compound 10 µM) [nM] | viability, T/C [1] [%] | viability, T/C [2] [%] | viability, T/C [3] [%] | viability, T/C [4] [%] | viability, T/C [7] [%] | viability, T/C [8] [%] | viability, T/C [9] [%] | viability, T/C [10] [%] | viability, T/C [13] [%] | viability, T/C [14] [%] | viability, T/C [15] [%] | viability, T/C [16] [%] | viability, T/C [19] [%] | viability, T/C [20] [%] | viability, T/C [21] [%] | other results
1 | CC(C)c1c(-c2ccccc2)nc2c(C#N)c[nH]n2c1=O + NC1CCC(NC2CC2c2ccccc2)CC1 | > 10000 | > 10000 | > 10000 | > 10000 | > 10000 | 104 | 103 | 93.8 | 92.3 | 94.2 | 102 | 94.8 | 82 | 86.3 | 93.9 | 85.7 | 92 | 90 | 86.5 | 97.3 | viability, T/C [5]: 86%; viability, T/C [6]: 89.7%; viability, T/C [11]: 97.1%; viability, T/C [12]: 102%; viability, T/C [17]: 90%; viability, T/C [18]: 106%; viability, T/C [22]: 79.5%; viability, T/C [23]: 81.5%; viability, T/C [24]: 83.5%; viability, T/C [25]: 96.7%; viability, T/C [26]: 82.7%; viability, T/C [27]: 73.4%; viability, T/C [28]: 88.2%; viability, T/C [29]: 80.4%; viability, T/C [30]: 79.7%
2 | CC1COCCN1c1cc(-c2ccnn2C)c2ccnc(-c3ccn[nH]3)c2n1 (stereo not given) + NC1CCC(NC2CC2c2ccccc2)CC1 | 441 | 231 | 454 | 332 | 332 | 77.4 | 75.8 | 53.8 | 36.7 | 91.3 | 65 | 47.9 | 38.2 | 80 | 70 | 50.3 | 44.7 | 77.3 | 69.2 | 47.9 | viability, T/C (second compound 0.1 µM, first compound 0.00316 µM): 90.8%; viability, T/C (second compound 0.1 µM, first compound 0.01 µM): 91.8%; viability, T/C (second compound 0.316 µM, first compound 0.00316 µM): 76.9%; viability, T/C (second compound 0.316 µM, first compound 0.01 µM): 104%; viability, T/C (second compound 1 µM, first compound 0.00316 µM): 110%; viability, T/C (second compound 1 µM, first compound 0.01 µM): 101%; viability, T/C (second compound 3.16 µM, first compound 0.00316 µM): 89%; viability, T/C (second compound 3.16 µM, first compound 0.01 µM): 77.9%; viability, T/C [22]: 40.1%; viability, T/C (second compound 10 µM, first compound 0.00316 µM): 75.7%; viability, T/C (second compound 10 µM, first compound 0.01 µM): 73.4%; viability, T/C [25]: 72.6%; viability, T/C [26]: 67.4%; viability, T/C [27]: 50.2%; viability, T/C [28]: 42.6%
3 | CC1COCCN1c1cc(C2(S(C)(=N)=O)CC2)nc(-c2ccnc3[nH]ccc23)n1 (stereo not given) + NC1CCC(NC2CC2c2ccccc2)CC1 | > 10000 | > 10000 | > 10000 | > 10000 | 2250 | 107 | 91.1 | 83.2 | 89.1 | 105 | 99 | 86.9 | 83 | 88.1 | 93.4 | 100 | 65.3 | 92.6 | 93.2 | 98 | viability, T/C [5]: 63.4%; viability, T/C [6]: 49.4%; viability, T/C [11]: 64.1%; viability, T/C [12]: 52.9%; viability, T/C [17]: 59.8%; viability, T/C [18]: 60.9%; viability, T/C [22]: 78.2%; viability, T/C [23]: 63.1%; viability, T/C [24]: 49.5%; viability, T/C [25]: 87.3%; viability, T/C [26]: 88.1%; viability, T/C [27]: 71%; viability, T/C [28]: 62.1%; viability, T/C [29]: 46.1%; viability, T/C [30]: 21.3%

From PubChem BioAssay AID1918931 (Molecular Pharmacology Branch, DTP, NCI, 2023)
